The record followed here is ChEMBL document CHEMBL1154059, “Synthesis and biological evaluation of novel 4,5-bis(dialkylaminoalkyl)-substituted acridines as potent telomeric G-quadruplex ligands” (Eur J Med Chem, 2009).

For assay [1], the system named is Nucleic Acid. The assay is described as follows: Binding affinity to human telomeric DNA G-quadruplex assessed as change in melting temperature at 20 uM by FRET assay. It counts as nucleic-acid assay.
Assay [2] has as its target Telomerase reverse transcriptase (Homo sapiens, UniProt O14746). The assay is described as follows: Inhibition of human telomerase in HT1080 cells by TRAP assay.
The test system of assay [3] is Nucleic Acid. The experiment in a line: Binding affinity to human telomeric DNA G-quadruplex assessed as change in melting temperature at 5 uM by FRET assay. It counts as nucleic-acid assay.
Assay [4] concerns Nucleic Acid. The experiment in a line: Binding affinity to human telomeric DNA G-quadruplex assessed as change in melting temperature at 1 uM by FRET assay. It counts as nucleic-acid assay.
The subject of assay [5] is Nucleic Acid. The experiment in a line: Binding affinity to human telomeric DNA G-quadruplex assessed as change in melting temperature at 10 uM by FRET assay. It counts as nucleic-acid assay.

Telomerase reverse transcriptase, sequence (O14746 whole entry): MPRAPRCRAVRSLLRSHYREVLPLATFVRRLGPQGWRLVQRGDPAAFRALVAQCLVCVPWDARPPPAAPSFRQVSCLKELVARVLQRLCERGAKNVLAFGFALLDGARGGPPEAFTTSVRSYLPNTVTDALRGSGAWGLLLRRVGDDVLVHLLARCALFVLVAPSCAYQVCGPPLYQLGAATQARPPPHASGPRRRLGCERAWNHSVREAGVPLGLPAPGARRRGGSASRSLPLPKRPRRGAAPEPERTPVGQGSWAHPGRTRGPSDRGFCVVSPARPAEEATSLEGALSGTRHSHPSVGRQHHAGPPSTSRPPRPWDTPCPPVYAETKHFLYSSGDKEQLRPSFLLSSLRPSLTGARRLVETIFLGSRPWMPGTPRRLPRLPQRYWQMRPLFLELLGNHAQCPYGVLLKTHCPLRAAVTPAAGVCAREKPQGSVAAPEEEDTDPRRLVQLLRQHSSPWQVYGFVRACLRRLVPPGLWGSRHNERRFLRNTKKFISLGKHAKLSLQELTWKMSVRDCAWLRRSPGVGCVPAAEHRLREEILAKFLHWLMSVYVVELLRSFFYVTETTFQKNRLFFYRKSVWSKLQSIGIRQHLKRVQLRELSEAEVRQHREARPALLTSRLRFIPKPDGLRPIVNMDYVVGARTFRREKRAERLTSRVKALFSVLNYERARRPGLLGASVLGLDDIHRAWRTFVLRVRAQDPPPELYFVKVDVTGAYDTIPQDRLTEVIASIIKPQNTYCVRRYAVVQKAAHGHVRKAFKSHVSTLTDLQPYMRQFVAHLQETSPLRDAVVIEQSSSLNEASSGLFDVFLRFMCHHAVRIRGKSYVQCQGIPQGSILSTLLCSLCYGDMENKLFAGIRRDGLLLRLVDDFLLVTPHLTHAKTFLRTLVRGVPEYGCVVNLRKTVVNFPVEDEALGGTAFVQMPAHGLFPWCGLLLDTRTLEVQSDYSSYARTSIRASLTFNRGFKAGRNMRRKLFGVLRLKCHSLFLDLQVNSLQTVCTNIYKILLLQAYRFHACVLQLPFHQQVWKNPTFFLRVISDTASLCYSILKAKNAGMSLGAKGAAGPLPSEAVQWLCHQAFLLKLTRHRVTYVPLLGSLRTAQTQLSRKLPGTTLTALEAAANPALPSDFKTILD

A word on the ΔTm: it is the shift of the melting midpoint relative to a reference. On to `c1ccc(CNCc2cccc3cc4cccc(CNCc5ccccc5)c4nc23)cc1`, for which the ΔTm with Nucleic Acid [1] was determined as 4.8 °C.

Usually IC50 stands for the midpoint of a concentration-inhibition curve. The low end stands for inhibition by little substance, the high end for a need for much substance. In assay [2], `CN(C)CCNCc1cccc2cc3cccc(CNCCN(C)C)c3nc12` returned an IC50 of 5.6 µM. Moreover, the ΔTm in the assay with Nucleic Acid [3] was determined as 4 °C; with Nucleic Acid [1], 10.2 °C.

In the case of `O=C(CN1CCCC1)NCc1cccc2cc3cccc(CNC(=O)CN4CCCC4)c3nc12`, in assay [2], the IC50 was > 30 µM. In addition, the results for the ΔTm with Nucleic Acid [3] and with Nucleic Acid [1] were 1.4 °C and 2.6 °C, respectively.

Take `NCc1cccc2cc3cccc(CN)c3nc12`: in assay [2], the IC50 was > 30 µM. Moreover, the ΔTm in the assay on Nucleic Acid [4] came to 0 °C; in the assay on Nucleic Acid [1], 7.3 °C.

On to `O=C(CCCN1CCCCC1)NCc1cccc2cc3cccc(CNC(=O)CCCN4CCCCC4)c3nc12`, for which the ΔTm was determined as 8.1 °C with Nucleic Acid [5], 3.7 °C in the assay with Nucleic Acid [3], 1.3 °C in the assay on Nucleic Acid [4] and 10.2 °C in the assay with Nucleic Acid [1]. This molecule also came in with an IC50 in assay [2] of 12 µM.

As to `O=C(CCCN1CCCC1)NCc1cccc2cc3cccc(CNC(=O)CCCN4CCCC4)c3nc12`, the ΔTm in the assay on Nucleic Acid [5] came out at 11.9 °C; with Nucleic Acid [3] it was 8.8 °C; in the assay with Nucleic Acid [4], 3 °C; in the assay with Nucleic Acid [1], 16.4 °C. The molecule also displayed an IC50 in assay [2] of 13 µM.

As for `CN1CCN(CCC(=O)NCc2cccc3cc4cccc(CNC(=O)CCN5CCN(C)CC5)c4nc23)CC1`, the ΔTm in the assay with Nucleic Acid [5] was determined as 2.6 °C; in the assay with Nucleic Acid [3], 0.5 °C; in the assay with Nucleic Acid [4], 0 °C; with Nucleic Acid [1], 4.6 °C. The IC50 in assay [2] was > 30 µM.

In turn, `CN(C)CCCNCc1cccc2cc3cccc(CNCCCN(C)C)c3nc12` gave an IC50 in assay [2] of 0.15 µM. Moreover, the shift in melting temperature (ΔTm) in the assay with Nucleic Acid [3] came to 6.7 °C; in the assay on Nucleic Acid [1], 17.7 °C.

On to `CN(C)c1ccc(Nc2c3ccc(NC(=O)CCN4CCCC4)cc3nc3cc(NC(=O)CCN4CCCC4)ccc23)cc1`, for which the figures for the ΔTm with Nucleic Acid [5], in the assay with Nucleic Acid [3] and in the assay on Nucleic Acid [4] were 41.1 °C, 34.7 °C and 29.1 °C, respectively. For the same molecule, the IC50 in assay [2] worked out at 0.09 µM.

Consider `C[N+](C)(C)CCC(=O)NCc1cccc2cc3cccc(CNC(=O)CC[N+](C)(C)C)c3nc12`, for which the ΔTm with Nucleic Acid [5] was 8.2 °C; in the assay with Nucleic Acid [3], 5.7 °C; with Nucleic Acid [4], 2.1 °C; in the assay with Nucleic Acid [1], 11 °C. This molecule also yielded an IC50 in assay [2] of 3 µM.

Turning to `CCN(CC)CC(=O)NCc1cccc2cc3cccc(CNC(=O)CN(CC)CC)c3nc12`, in the assay on Nucleic Acid [1], the ΔTm turned out to be 2.4 °C.

Regarding `C[N+]1(CC(=O)NCc2cccc3cc4cccc(CNC(=O)C[N+]5(C)CCCCC5)c4nc23)CCCCC1`, the ΔTm was found to be 8.8 °C in the assay with Nucleic Acid [5], 6.8 °C with Nucleic Acid [3], 2.6 °C with Nucleic Acid [4] and 12.6 °C in the assay with Nucleic Acid [1]. 30 µM corresponded to half-maximal inhibition in assay [2] (IC50).

Turning to `C[N+]1(CCC(=O)NCc2cccc3cc4cccc(CNC(=O)CC[N+]5(C)CCCC5)c4nc23)CCCC1`, the ΔTm in the assay on Nucleic Acid [5] came out at 8.7 °C; with Nucleic Acid [3], 6.8 °C; in the assay with Nucleic Acid [4] it was 2.3 °C; with Nucleic Acid [1], 12.6 °C. In assay [2], this molecule registered an IC50 of 4 µM.

`c1cnc(NCc2cccc3cc4cccc(CNc5ncccn5)c4nc23)nc1`: the ΔTm in the assay on Nucleic Acid [1] was 0 °C.

For the molecule `C[N+](C)(C)CC(=O)NCc1cccc2cc3cccc(CNC(=O)C[N+](C)(C)C)c3nc12`, inhibition in assay [2] was half-maximal at 7.3 µM (IC50). Further, the ΔTm stood at 5.9 °C in the assay with Nucleic Acid [3] and 16.7 °C in the assay with Nucleic Acid [1].

As to `O=C(CCN1CCCC1)NCc1cccc2cc3cccc(CNC(=O)CCN4CCCC4)c3nc12`, the ΔTm with Nucleic Acid [5] came to 4.3 °C; in the assay with Nucleic Acid [3], 2.8 °C; in the assay on Nucleic Acid [4], 0 °C; in the assay with Nucleic Acid [1] it was 7.6 °C. In assay [2], this molecule showed an IC50 of 6 µM.

As to `O=C(CCN1CCCCC1)NCc1cccc2cc3cccc(CNC(=O)CCN4CCCCC4)c3nc12`, the thermal shift (ΔTm) in the assay with Nucleic Acid [5] stood at 7.3 °C; with Nucleic Acid [3], 6.6 °C; with Nucleic Acid [4] it was 2.2 °C; in the assay with Nucleic Acid [1], 10.4 °C. For the same molecule, the 50% inhibitory concentration (IC50) in assay [2] was > 30 µM.

For the molecule `O=C(CN1CCCCC1)NCc1cccc2cc3cccc(CNC(=O)CN4CCCCC4)c3nc12`, the ΔTm in the assay on Nucleic Acid [3] was found to be 0.6 °C; in the assay with Nucleic Acid [4], 0 °C; in the assay on Nucleic Acid [1], 14.6 °C.

As to `CN(C)CCC(=O)NCc1cccc2cc3cccc(CNC(=O)CCN(C)C)c3nc12`, in assay [2], the IC50 is > 30 µM. Moreover, the ΔTm in the assay on Nucleic Acid [3] was 5 °C; in the assay on Nucleic Acid [1] it was 8.1 °C.

Consider `CCN(CC)CCC(=O)NCc1cccc2cc3cccc(CNC(=O)CCN(CC)CC)c3nc12`, for which the ΔTm is 9.1 °C with Nucleic Acid [5], 7.2 °C in the assay on Nucleic Acid [3], 2.6 °C with Nucleic Acid [4] and 10.7 °C with Nucleic Acid [1].

As to `C[N+]1(CC(=O)NCc2cccc3cc4cccc(CNC(=O)C[N+]5(C)CCCC5)c4nc23)CCCC1`, the ΔTm in the assay on Nucleic Acid [5] came to 7.4 °C; with Nucleic Acid [3], 4.3 °C; in the assay with Nucleic Acid [4], 0.3 °C; with Nucleic Acid [1], 9.8 °C. The IC50 in assay [2] is 27 µM.

As to `CN(C)CC(=O)NCc1cccc2cc3cccc(CNC(=O)CN(C)C)c3nc12`, the IC50 in assay [2] is > 30 µM. In addition, in the assay on Nucleic Acid [1], the ΔTm was 3.6 °C.
